Data on 19 compounds can be found in ChEMBL document CHEMBL1147486 (Bioorg Med Chem Lett, 2004).

Assay [1] concerns Rattus norvegicus. Briefly: Hypolipidemic action at 500 uM/kg was determined as reduction in triglycerides in rat plasma. It counts as functional.
Assay [2] concerns Rattus norvegicus. In words: Hypolipidemic action at 500 uM/kg was determined as reduction in total cholesterol in rat plasma.
Assay [3] concerns Mus musculus. Briefly: Antiinflammatory activity, administered ip at 150 uM/kg dose was determined against carrageenan-induced mice paw edema model. The conditions noted are these: at 150 µmol/kg. Format: functional. Background: Carrageenan injected into the paw causes an acute inflammation.
The test system of assay [4] is Rattus norvegicus. Briefly: Ulcerogenic activity administered once daily at 1350 uM/kg for 4 days was determined as no of animals showing perforating ulcers. Format: functional.
The test system of assay [5] is Rattus norvegicus. In words: Body weight change after once daily administration for 4 days in rats was determined. Format: functional.
The test system of assay [6] is Rattus norvegicus. In words: Hypolipidemic action at 500 uM/kg was determined as reduction in low density lipoprotein in rat plasma. Format: functional.
The test system of assay [7] is Rattus norvegicus. In words: Mortality caused by the compound in rats after administration at 1350 uM/kg for 4 days. It counts as functional.
Assay [8] has as its system Rattus norvegicus. In words: Ulcerogenic activity administered once daily at 1200 uM/kg for 4 days was determined as no of animals showing perforating ulcers. It counts as functional.
Assay [9] deals with Rattus norvegicus. In words: Mortality caused by the compound in rats after administration at 1200 uM/kg for 4 days. It counts as functional.
Assay [10] has as its system Rattus norvegicus. Briefly: Ulcerogenic activity administered once daily at 240 uM/kg for 4 days was determined as no of animals showing perforating ulcers. Format: functional.
Assay [11] deals with Rattus norvegicus. Briefly: Body weight change after once daily administration at 1600 uM/kg for 4 days in rats was determined. Format: functional.
Assay [12] has as its system Rattus norvegicus. In words: Mortality caused by the compound in rats after administration at 1600 uM/kg for 4 days. It counts as functional.
The subject of assay [13] is Rattus norvegicus. Briefly: Hypolipidemic action at 300 uM/kg was determined as reduction in low density lipoprotein in rat plasma. It counts as functional.
Assay [14] concerns Rattus norvegicus. Briefly: Ulcerogenic activity administered once daily at 1600 uM/kg for 4 days was determined as no of animals showing perforating ulcers. It counts as functional.
For assay [15], the system named is Rattus norvegicus. Briefly: Hypolipidemic action at 300 uM/kg was determined as reduction in triglycerides in rat plasma. It counts as functional.
Assay [16] has as its system Rattus norvegicus. In words: Hypolipidemic action at 300 uM/kg was determined as reduction in total cholesterol in rat plasma. Format: functional.
Assay [17] has as its system Rattus norvegicus. Briefly: Body weight change after once daily administration at 760 uM/kg for 4 days in rats was determined. Format: functional.
The subject of assay [18] is Rattus norvegicus. Briefly: Ulcerogenic activity administered once daily at 760 uM/kg for 4 days was determined as no of animals showing perforating ulcers. It counts as functional.
Assay [19] deals with Rattus norvegicus. Briefly: Mortality caused by the compound in rats after administration at 760 uM/kg for 4 days. Format: functional.
Assay [20] concerns Rattus norvegicus. Briefly: Ulcerogenic activity administered once daily at 84 uM/kg for 4 days was determined as no of animals showing perforating ulcers. Format: functional.
The test system of assay [21] is Rattus norvegicus. Briefly: Mortality caused by the compound in rats after administration at 84 uM/kg for 4 days. Format: functional.
Assay [22] has as its system Rattus norvegicus. Briefly: Body weight change after once daily administration at 84 uM/kg for 4 days in rats was determined. It counts as functional.
For assay [23], the species on record is Rattus norvegicus. Briefly: In vitro ability to inhibit the peroxidation of rat hepatic microsomal lipids. It counts as functional. The settings on record: Liver.
Assay [24] is filed under the species Rattus norvegicus. Briefly: In vitro ability to inhibit the peroxidation of rat hepatic microsomal lipids at 1 mM concentration. The conditions noted are these: Liver. Format: functional.
Assay [25] concerns Rattus norvegicus. Briefly: Mortality caused by the compound in rats after administration at 240 uM/kg for 4 days. It counts as functional.
In assay [26] the test system is Rattus norvegicus. In words: Body weight change after once daily administration at 240 uM/kg for 4 days in rats was determined. It counts as functional.
Assay [27] relates to Rattus norvegicus. In words: Hypolipidemic action at 250 uM/kg was determined as reduction in low density lipoprotein in rat plasma. It counts as functional.
Assay [28] has as its system Rattus norvegicus. In words: Hypolipidemic action at 250 uM/kg was determined as reduction in total cholesterol in rat plasma. Format: functional.
The test system of assay [29] is Rattus norvegicus. In words: Hypolipidemic action at 250 uM/kg was determined as reduction in triglycerides in rat plasma. Format: functional.
The test system of assay [30] is Rattus norvegicus. Briefly: Body weight change after once daily administration for 4 days at 84 uM/kg in rats was determined. Format: functional.
For assay [31], the system named is Rattus norvegicus. Briefly: Ulcerogenic activity administered once daily for 4 days at 84 uM/kg was determined as no of animals showing perforating ulcers. Format: functional.
The test system of assay [32] is Rattus norvegicus. Briefly: Mortality caused by the compound in rats after administration at 200 uM/kg for 4 days. Format: functional.
Assay [33] has as its system Rattus norvegicus. In words: Body weight change after once daily administration at 200 uM/kg for 4 days in rats was determined. Format: functional.
For assay [34], the system named is Rattus norvegicus. In words: Ulcerogenic activity administered once daily at 200 uM/kg for 4 days was determined as no of animals showing perforating ulcers. Format: functional.

`COc1ccc2cc([C@H](C)C(=O)O)ccc2c1` [NAPROXEN]: the Decrease in assay [1] is on record as 25.5%; in assay [2], 53%; in assay [6] it was 43.5%. This compound also registered an Edema inhibition in assay [3] of 11%. This compound also yielded a Paw weight increase in assay [3] of 50.4%. For the same compound, the Ulcerogenic activity in assay [4] is on record as 100%. Besides, in assay [5], the Body weight change is -15.8 g (100g of body weight)-1. In assay [7], this compound yielded a Mortality of 50%.
In the case of `O=C(O)c1ccccc1Nc1cccc(C(F)(F)F)c1` [FLUFENAMIC ACID], in assay [3], the Edema inhibition was determined as 19% and the Paw weight increase is listed as 55.4%. The Ulcerogenic activity in [8] is recorded as 50%. Also, the Mortality in [9] was found to be 50%. For the same compound, the Body weight change in assay [5] is on record as -9.2 g (100g of body weight)-1.
In assay [10], `O=C([O-])Cc1ccccc1Nc1c(Cl)cccc1Cl.[Na+]` [DICLOFENAC SODIUM] showed a Ulcerogenic activity of 75%. Also, the Decrease in assay [1] came to 96.1%; in [2], 87.4%; in assay [6], 86.3%. Also, the Edema inhibition in assay [3] turned out to be 37.1%. Besides, the Paw weight increase in assay [3] turned out to be 24.5%.
In the case of `CC(C)Cc1ccc(C(C)C(=O)O)cc1` (stereo not given) [IBUPROFEN], the Edema inhibition in [3] is 35.6%. In [3], the Paw weight increase is 31.7%. Besides, in [11], the Body weight change was -12.7 g (100g of body weight)-1. This compound also showed a Mortality in [12] of 50%. Further, the Decrease in assay [13] was determined as 31.6%; in [15] it was 41.6%; in assay [16] it was 38.2%. In assay [14], this compound showed a Ulcerogenic activity of 88%.
In assay [3], `CCOC(=O)[C@@H](N)CS.Cc1c(Cl)cccc1Nc1ccccc1C(=O)O` displayed an Edema inhibition of 25.9% and a Paw weight increase of 25.5%.
In assay [3], `CCOC(=O)[C@@H](N)CS` yielded an Edema inhibition of 24.9% and a Paw weight increase of 29.2%.
For the compound `Cc1c(Cl)cccc1Nc1ccccc1C(=O)O` [TOLFENAMIC ACID], the Body weight change in assay [17] is -5.3 g (100g of body weight)-1. In assay [3], this compound yielded an Edema inhibition of 24% and a Paw weight increase of 27.6%. In [18], this compound showed a Ulcerogenic activity of 50%. Besides, the Mortality in assay [19] is on record as 50%.
Take `CCOC(=O)[C@@H](N)CS.COc1ccc2cc(C(C)C(=O)O)ccc2c1` (stereo not given): in assay [3], the Edema inhibition amounted to 38.1% and the Paw weight increase is recorded as 30.1%.
In assay [20], `COc1ccc2c(c1)c(CC(=O)O)c(C)n2C(=O)c1ccc(Cl)cc1` [INDOMETHACIN] registered a Ulcerogenic activity of 80%. Besides, the Decrease amounted to 78.6% in assay [1], 74.4% in assay [2] and 72.2% in [6]. This compound came in with an Edema inhibition in assay [3] of 41.6%. Further, the Paw weight increase in [3] is reported as 22.5%. Also, the Mortality in assay [21] is 50%. Moreover, the Body weight change in assay [22] is listed as -13 g (100g of body weight)-1.
Turning to `CCOC(=O)[C@H](CS)NC(=O)Cc1ccccc1Nc1c(Cl)cccc1Cl`, in [10], the Ulcerogenic activity was 0%. In addition, the Decrease in assay [1] came to 31.6%; in [2] it was 54.7%; in [6], 92.6%. In assay [3], the Edema inhibition is 59.3%. Also, the Paw weight increase in [3] is 11.8%. Also, half-maximal inhibition in assay [23] (IC50) required 27 µM. Moreover, in assay [24], the inhibition (in general, the share of the control response that was lost under treatment) stood at 100%. In addition, the Mortality in [25] is listed as 0%. The Body weight change in assay [26] was 3.1 g (100g of body weight)-1.
In turn, `CCOC(=O)[C@H](CS)NC(=O)C(C)c1ccc(CC(C)C)cc1` (stereo not given in full) yielded an Edema inhibition in [3] of 61.2%. This compound came in with a Paw weight increase in assay [3] of 19.1%. For the same compound, half-maximal inhibition in [23] (IC50) required 38 µM. This compound yielded an inhibition in assay [24] of 100%. The Mortality in [12] amounted to 0%. This compound also yielded a Ulcerogenic activity in assay [14] of 0%. Besides, the Decrease in assay [27] was determined as 68.7%; in assay [28] it was 48.1%; in assay [29] it was 27.5%. Also, the Body weight change in assay [5] is reported as 1 g (100g of body weight)-1.
In assay [3], `CC(C(=O)O)c1cccc(C(=O)c2ccccc2)c1.CCOC(=O)[C@@H](N)CS` (stereo not given) came in with an Edema inhibition of 39% and a Paw weight increase of 41.6%.
Turning to `CCOC(=O)[C@H](CS)NC(=O)Cc1c(C)n(C(=O)c2ccc(Cl)cc2)c2ccc(OC)cc12`, in assay [30], the Body weight change is given as 3.4 g (100g of body weight)-1. In addition, the Decrease in assay [1] was found to be 19.8%; in assay [2], 37%; in assay [6], 60.5%. The compound further displayed an Edema inhibition in [3] of 63.3%. The Paw weight increase in assay [3] was 14.1%. Also, the IC50 (usually the concentration that inhibits the measured activity by half) in assay [23] is 51 µM. This compound gave an inhibition in assay [24] of 100%. This compound displayed a Ulcerogenic activity in assay [31] of 0%. The Mortality in [21] is 0%.
With `CCOC(=O)[C@H](CS)NC(=O)C(C)c1cccc(C(=O)c2ccccc2)c1` (stereo not given in full), in [3], the Edema inhibition amounted to 29% and the Paw weight increase stood at 48%. The same compound yielded an IC50 in assay [23] of 650 µM. The same compound yielded an inhibition in assay [24] of 100%. The compound further gave a Mortality in assay [32] of 0%. Further, the Body weight change in assay [33] is 0.3 g (100g of body weight)-1. In [34], this compound registered a Ulcerogenic activity of 0%.
Regarding `CCOC(=O)[C@@H](N)CS.O=C(O)c1ccccc1Nc1cccc(C(F)(F)F)c1`, in assay [3], the Edema inhibition amounted to 9% and the Paw weight increase is 61.9%.
As for `CCOC(=O)[C@H](CS)NC(=O)C(C)c1ccc2cc(OC)ccc2c1` (stereo not given in full), the Decrease came to 29.6% in assay [1], 33.8% in assay [2] and 46.8% in assay [6]. The compound also displayed an Edema inhibition in assay [3] of 37.1%. In addition, the Paw weight increase in assay [3] is given as 35.6%. In assay [4], this compound yielded a Ulcerogenic activity of 0%. In assay [23], this compound returned an IC50 of 28 µM. The same compound had an inhibition in [24] of 100%. Besides, the Body weight change in assay [5] is recorded as 9.2 g (100g of body weight)-1. This compound returned a Mortality in assay [7] of 0%.
In the case of `CCOC(=O)[C@@H](N)CS.O=C([O-])Cc1ccccc1Nc1c(Cl)cccc1Cl.[Na+]`, in assay [3], the Edema inhibition came out at 27.7% and the Paw weight increase amounted to 28.2%.
Turning to `CC(C(=O)O)c1cccc(C(=O)c2ccccc2)c1` (stereo not given) [KETOPROFEN], the Paw weight increase in assay [3] was found to be 35.9%. Further, in assay [32], the Mortality came to 50%. In addition, the Body weight change in [33] is on record as -18.9 g (100g of body weight)-1. The same compound came in with a Ulcerogenic activity in assay [34] of 83%.
In [3], `CCOC(=O)[C@@H](N)CS.COc1ccc2c(c1)c(CC(=O)O)c(C)n2C(=O)c1ccc(Cl)cc1` returned an Edema inhibition of 32.8% and a Paw weight increase of 25.8%.
